The source of these data is patent US8263628B2, “Fluorine-containing organosulfur compound and pesticidal composition thereof” (Sumitomo Chemical Company, Limited., priority 2007, dated 2012).

The subject of one test is Musca domestica. Kind of test: Filter paper/sucrose bait test against female Musca domestica. The note with it: 500 ppm test solution, 0.7 mL on filter paper; 10 female Musca domestica; after 24 hours; read-out: mortality rate. The test is classed as in vivo. As for the experimental part:
Each of the formulations of the present compounds (1), (2), (3), (4), (5), (6), (8), (9), (10), (12), (14) and (15) obtained in Formulation Example 20 was diluted so that the concentration of the present compound was 500 ppm to prepare a test solution.
On the bottom of a polyethylene cup having a diameter of 5.5 cm, a filter paper having the same size was laid and 0.7 mL of the test solution was dropped on the filter paper, and then 30 mg of a sucrose as a bait was uniformly placed. In the polyethylene cup, 10 female Musca domesticas were released and the cup was lidded. After 24 hours, life and death of Musca domesticas were examined and the mortality rate was determined.

The next test deals with Culex pipiens pallens. The test can be described thus: Water treatment test against Culex pipiens pallens last instar larvae. Type of test: in vivo. As to conditions: 24 h; active ingredient 3.5 ppm in water; 20 Culex pipiens pallens last instar larvae; after one day; read-out: mortality rate. As for the experimental part: Each of the formulations of the present compounds (1), (3), (4), (6), (8), (9), (10), (14) and (15) obtained in Formulation Example 20 was diluted so that the concentration of the present compound was 500 ppm to prepare a test solution.
To 100 mL of ion-exchange water was added 0.7 mL of the above test solution (concentration of an active ingredient: 3.5 ppm). In the solution, 20 Culex pipiens pallens last instar larvae were released. After one day, life and death of Culex pipiens last instar larvae were examined and the mortality rate was determined.

Where only a bound is given, the exact number is not on record here.

Consider `FC(F)(F)CCSCc1cnc(C(F)(F)F)nc1` [present compound (10), 2-trifluoromethyl-5-(3,3,3-trifluoropropylsulfanylmethyl)pyrimidine], for which the mortality (commonly the share of the test organisms that died) at 500 ppm in the test with Musca domestica was not below 90%. Moreover, the mortality at 3.5 ppm in the test with Culex pipiens pallens is not below 95%. As to `FC(F)(F)CCSCc1ccc(C(F)(F)F)nc1` [present compound (1), 2-trifluoromethyl-5-(3,3,3-trifluoropropylsulfanylmethyl)pyridine], in the test with Musca domestica, the mortality at 500 ppm was not below 90%. Also, in the test on Culex pipiens pallens, the mortality at 3.5 ppm was not below 95%.

Turning to `CC(SCCC(F)(F)F)c1ccc(Cl)cn1` (stereo not drawn) [present compound (6), 5-chloro-2-[1-(3,3,3-trifluoropropylsulfanyl)ethyl]pyridine], the mortality at 500 ppm with Musca domestica was not below 90%. Further, the mortality at 3.5 ppm with Culex pipiens pallens was not below 95%. On to `CC(c1ccc(C(F)(F)F)cn1)S(=O)(=O)CCC(F)(F)F` (stereo not drawn) [present compound (9), 5-trifluoromethyl-2-[1-(3,3,3-trifluoropropanesulfonyl)ethyl]pyridine], for which the mortality at 500 ppm with Musca domestica is not below 90%. In addition, in the test on Culex pipiens pallens, the mortality at 3.5 ppm is not below 95%. In the case of `COC(=O)C(Cl)(c1ccc(C(F)(F)F)cn1)S(=O)(=O)CCC(F)(F)F` (stereo not drawn) [present compound (14), methyl 2-chloro-2-(5-trifluoromethylpyridin-2-yl)-2-(3,3,3-trifluoropropylsulfonyl)acetate], the mortality at 500 ppm in the test with Musca domestica was not below 90%. Besides, the mortality at 3.5 ppm with Culex pipiens pallens was not below 95%. In the case of `O=S(=O)(CCC(F)(F)F)Cc1ccc(C(F)(F)F)nc1` [present compound (2), 2-trifluoromethyl-5-(3,3,3-trifluoropropanesulfonylmethyl)pyridine], in the test with Musca domestica, the mortality at 500 ppm was not below 90%. For `O=S(=O)(CCC(F)(F)F)C(Cl)c1ccc(C(F)(F)F)cn1` (stereo not drawn) [present compound (15), 2-[chloro-(3,3,3-trifluoropropanesulfonyl)methyl]-5-trifluoromethylpyridine], the mortality at 500 ppm with Musca domestica is not below 90%. In addition, the mortality at 3.5 ppm in the test with Culex pipiens pallens is not below 95%. For `CC(c1ccc(C(F)(F)F)nc1)S(=O)(=O)CCC(F)(F)F` (stereo not drawn) [present compound (4), 2-trifluoromethyl-5-[1-(3,3,3-trifluoropropanesulfonyl)ethyl]pyridine] the same measures were not below 90% and not below 95%. For the molecule `FC(F)(F)CCSCc1ccc(Cl)cn1` [present compound (5), 5-chloro-2-(3,3,3-trifluoropropylsulfanylmethyl)pyridine], the mortality at 500 ppm with Musca domestica was not below 90%. Consider `CC(SCCC(F)(F)F)c1ccc(C(F)(F)F)cn1` (stereo not drawn) [present compound (8), 5-trifluoromethyl-2-[1-(3,3,3-trifluoropropylsulfanyl)ethyl]pyridine], for which the mortality at 500 ppm in the test on Musca domestica is not below 90%. In the test with Culex pipiens pallens, the mortality at 3.5 ppm is not below 95%. Consider `COc1ncc(CSCCC(F)(F)F)cn1` [present compound (12), 2-methoxy-5-(3,3,3-trifluoropropylsulfanylmethyl)pyrimidine], for which, in the test on Musca domestica, the mortality at 500 ppm is not below 90%.

Take `CC(SCCC(F)(F)F)c1ccc(C(F)(F)F)nc1` (stereo not drawn) [present compound (3), 2-trifluoromethyl-5-[1-(3,3,3-trifluoropropylsulfanyl)ethyl]pyridine]: the mortality at 500 ppm in the test with Musca domestica is not below 90%. In addition, in the test with Culex pipiens pallens, the mortality at 3.5 ppm is not below 95%.
